Measured values reported in patent US20150072933A1, “NOVEL SEQUENCES FOR THE CONTROL OF REPRODUCTION IN FISH” (Yissum Research Development Company of the Hebrew …, priority 2011, published 2015).
“Also recorded” adds a separate entry of the source. *1 amine or outer side, *2 acyl side, *3 side chain or, on linkers, in order; H or OH if unused. Where a SMILES comes first, the peptide text is derived from it. [ ]: non-standard residue; d: D form. NMeF = CN[C@@H](Cc1ccccc1)C(=O)O; Suc = O=C(CCC(=O)[*:2])[*:1]; NMeV = CN[C@H](C(=O)O)C(C)C

Experiments:
[1] = system: sexually mature female zebrafish; assay: In vivo effect of NKBs in zebrafish: LH secretion after intraperitoneal injection; details: single intraperitoneal injection, 20 pmol/g body weight, sexually mature female zebrafish
Description: In vivo studies involved administering NKBa, NKBb or NKF and the analogues thereof, denoted by SEQ ID NO. 40-42 and 44-46, respectively to immature fish (20 fish/treatment). The circulating levels of E2, 11KT, LH and FSH were determined prior to hormonal manipulations, in order to confirm that these fish were indeed sexually immature. The fish were injected intramuscularly (i.m.) or intraperitonealy (i.p.) at various doses. Adult female zebra fish were injected intraperitoneally with 20 pmol/g body weight. Control fish were injected with saline. Plasma samples were collected at time 0, and specific times after the administration of the peptide/s, to determine the levels of E2, 11KT, LH and FSH.
To further characterize the role of the NKB/NKBR system in fish reproduction the in vivo biological function of zebrafish NKB peptides was next examined.

NK-2 = details: GPI; cited from earlier work
zfTac3rb [2] = assay: Receptor transactivation assay, CRE-Luc reporter (PKA activation), COS-7 cells expressing zfTac3rb; type: cell-based, zebrafish; details: mean ± SEM
Description: (§1) In order to study the signaling pathways of the novel zebrafish NKBs, the entire coding regions of zftac3ra (denoted by SEQ ID NO:6) or zftac3rb (denoted by SEQ ID NO:7), or the cDNA clone for human NK3R (obtained from the Missouri S&T cDNA Resource Center, were inserted into pcDNA3.1 (Invitrogen). The luciferase assay was conducted according to Biran et al., 2008 [4] COS-7 cells were grown in DMEM supplemented with 10% FBS, 1% glutamine, 100 U/ml penicillin, and […] streptomycin (Biological Industries) under 5% CO2 until confluent. Cotransfection of either pc-zftac3ra, pc-zftac3rb or pc-Htac3r (at 3 μg/plate), a reporter plasmid (at 2 μg/plate), and pCMV-β-galactosidase (at 1 μg/plate) was carried out with FuGENE 6.0 reagent (Roche). The cells were serum starved for 36 h, stimulated with vehicle or various concentrations of either human (Sigma) or zebrafish NKBs for 6 h, and then harvested and analyzed. Lysates prepared from the harvested cells were assayed for both luciferase activity and β-galactosidase activity, which was used as an internal standard to normalize the luciferase activity directed by the test plasmid. Transfection experiments were performed in triplicate with three independently isolated sets. Protein structure prediction of zebrafish NKBa, NKBb or NKF were performed on I-Tasser servers.
(§2) The response, binding selectivity and signal transduction pathways of the novel tachykinin receptors to their agonists were evaluated by functional expression analysis, using COS-7 cells.
(§3) The NKB analogues (i.e. the NKBa-analog, NKBb-analog and NKF-analog, as denoted by SEQ ID NO. 44-46) were first analyzed in comparison to their native forms in a transactivation assay, using reporter genes for specific signal transduction pathways. To validate the specificity of the serum-responsive element (SRE)-Luc and cAMP-responsive element (CRE)-Luc reporter systems, specific activators for PLC/PKC and AC/PKA signaling pathways were used in control experiments.
(§4) Thus, the ability of the three novel piscine peptides (namely, NKBa, NKBb and NKF, denoted by SEQ ID NO.40, 41 and 42), as well as the ability of the three analogous agonistic peptides, namely, NKBa-analog, NKBb-analog and NKF-analog, to differentially activate the different tac3 receptors, using SRE as a reporter gene that follows PKC activation and CRE as a reporter gene for the PKA pathway, was tested. Human NK3R (human NKB receptor) and human NKB served as controls.

zfTac3ra [3] = assay: Receptor transactivation assay, SRE-Luc reporter (PKC activation), COS-7 cells expressing zfTac3ra; type: cell-based, zebrafish; details: mean ± SEM
Description: as §1, §2, §3, §4

zfTac3ra [4] = assay: Receptor transactivation assay, CRE-Luc reporter (PKA activation), COS-7 cells expressing zfTac3ra; type: cell-based, zebrafish; details: mean ± SEM
Description: as §1, §2, §3, §4

zfTac3rb [5] = assay: Receptor transactivation assay, SRE-Luc reporter (PKC activation), COS-7 cells expressing zfTac3rb; type: cell-based, zebrafish; details: mean ± SEM
Description: as §1, §2, §3, §4

Mature female carp = assay: Gonadotropin release from mature carp in vivo (LH by ELISA); details: mature female carp just before spawning, injected 20 μg/kg body weight; listed as NKBa analogue
Description: Mature female carp, just before spawning, were injected with NKBa, NKBb and NKF analogues, denoted by SEQ ID NO.44, SEQ ID NO.45 and SEQ ID NO.46, respectively (20 μg/kg body weight). LH levels was measured by specific ELISA, according to Aizen et al. 2012 [33].

Tilapia pituitary cells = assay: Gonadotropin release from tilapia pituitary dispersed cells; type: cell-based; details: 10 nM, 4 hr
Description: Tilapia pituitary cells were subjected to enzymatic dispersion. Pituitary cells were stimulated with 10 nM of the NKBa or NKF analogue, denoted by SEQ ID NO.44 and SEQ ID NO.46, respectively, for 4 hr, when the medium was collected. […] Stimulation of tilapia pituitary cells with GnRH at [10 nM] was used as a control.

Juvenile Tilapia = assay: Gonadotropin release in vivo from juvenile tilapia (plasma LH and FSH by ELISA); parameters: species or system Tilapia (Oreochromis niloticus); details: Juvenile Tilapia, injected at 0.5 or 5 μg/Kg BW
Description: Tilapia females (two-months old) were injected with the NKBa analogue denoted by SEQ ID NO.44 or the NKF analogue denoted by SEQ ID NO.46 at 0.5 or 5 μg/kg body weight (BW). Blood was withdrawn from the caudal vein and plasma Luteinizing hormone (LH) and Follicle-stimulating hormone (FSH) levels were measured using a homologous sensitive enzyme-linked immunosorbent assay (ELISA), as described by Aizen et al. 2007 [33].

[6] = Table 6 (native peptides and analogues), PKA activation, read-out: EC50 using CRE-Luc, zfTac3rb
[7] = Table 7 (native peptides and analogues), PKC activation, read-out: EC50 using SRE, zfTac3ra
[8] = Table 6 (native peptides and analogues), PKA activation, read-out: EC50 using CRE-Luc, zfTac3ra
[9] = Table 7 (native peptides and analogues), PKC activation, read-out: EC50 using SRE, zfTac3rb

Row | EC50 (zfTac3rb [2]; Table 6 (native peptides and analogues), PKA activation, listed as NKBa-analog, read-out: EC50 using CRE-Luc, zfTac3rb) | Compound | LH secretion [1] | EC50 (NK-2) | EC50 (zfTac3rb [2]; Table 5, COS-7 cells, CRE-Luc follows PKA activation, read-out: EC50 CRE-Luc zfTac3rb) | EC50 (zfTac3rb [2]; [6]) | EC50 (zfTac3ra [3]; Table 5, COS-7 cells, SRE-Luc follows PKC activation, read-out: EC50 SRE-Luc zfTac3ra) | EC50 (zfTac3ra [3]; [7]) | EC50 (zfTac3ra [4]; Table 5, COS-7 cells, CRE-Luc follows PKA activation, read-out: EC50 CRE-Luc zfTac3ra) | EC50 (zfTac3ra [4]; [8]) | EC50 (zfTac3rb [5]; Table 5, COS-7 cells, SRE-Luc follows PKC activation, read-out: EC50 SRE-Luc zfTac3rb) | EC50 (zfTac3rb [5]; [9]) | LH level (Mature female carp) | release of FSH from tilapia pituitary cells (Tilapia pituitary cells) | FSH secretion (Juvenile Tilapia) | LH secretion (Juvenile Tilapia)
1 | – | CSCC[C@H](NC(=O)[C@H](CC(C)C)NC(=O)CNC(=O)[C@H](Cc1ccccc1)N(C)C(=O)[C@H](Cc1ccccc1)NC(=O)[C@H](CC(=O)O)NC(=O)CCC(=O)O)C(N)=O [Senktide, Succ-Asp-Phe-N(Me)Phe-Gly-Leu-Met-NH2, reference compound] (Suc-DF[NMeF]GLM-NH2) | less pronounced | > 200000 nM | 20.1 ± 15.1 nM | 20.1 ± 15.1 nM | 2.67 ± 1.44 nM | 2.68 ± 1.44 nM | 49 ± 14.9 nM | 49 ± 14.9 nM | 2.72 ± 1.54 nM | 2.72 ± 1.54 nM | – | – | – | –
2 | 11.9 nM | CC[C@H](C)[C@H](NC(=O)[C@H](CC(=O)O)NC(=O)CCC(=O)O)C(=O)N[C@@H](Cc1ccccc1)C(=O)N(C)[C@H](C(=O)NCC(=O)N[C@@H](CC(C)C)C(=O)N[C@@H](CCSC)C(N)=O)C(C)C [zfNKBa-analog, Succ-Asp-Ile-Phe-N(Me)Val-Gly-Leu-Met-NH2] (Suc-DIF[NMeV]GLM-NH2) | – | – | – | 11.9 ± 16.9 nM | – | 0.15 ± 0.19 nM | – | 6.94 ± 1.28 nM | – | 0.29 nM | significant elevation; also recorded: increased the level of LH significantly | significantly increased | significant increase | significant increase
